According to patent publication US20150141523A1, “COMPOUNDS FOR USE IN THE TREATMENT OF AUTOIMMUNE INFLAMMATORY DISEASE” (Venantius Limited, priority 2012, published 2015):

Assays:
Jurkat cells = test: Jurkat cell viability (Acridine Orange/Ethidium Bromide); type: cell-based
Description: (§1) (A) Anti-TCR/CD28-mediated activation of Jurkat cells: Experiments involving anti-TCR/CD28-mediated activation of Jurkat T lymphocytes were carried out on 24-well cell culture plates. The plates were coated with a 1/100 dilution of rabbit anti-mouse IgG in sterile PBS (1×) and incubated overnight at 4OC. Unbound antibody was aspirated and the wells were gently rinsed with warm sterile PBS. The PBS was aspirated and the wells were coated with a 1/100 dilution of anti-TCR antibody (OKT-3) and a 1/200 dilution of anti-CD28 antibody (both antibodies pre-mixed prior to addition to the plates) in sterile PBS. The plates were then incubated for 1-2 hours at 37° C. Unbound antibody was aspirated and the wells were gently rinsed with warm PBS. The PBS was left on the plate until the Jurkat cells were ready to be added to the plate. The Jurkat cells were harvested from the T-75cm2 cell culture flasks and resuspended at a density of 0.5×10^6 cells per ml. The compounds were dissolved at a specified stock concentration (see results section) and diluted to the required concentration by adding the drug to the cell suspension. The cells were then pre-incubated with the compounds or with an equivalent volume of drug vehicle control (DMSO) for 30 minutes prior to adding the cell suspension to the antibody-coated plates. Cyclosporine A (1 μM) was used as a positive control to inhibit IL-2 production from activated T cells and was preincubated with the 6 cells as described above in parallel. The cells were then incubated on the plates with the acti-TCR/CD28 antibodies for 24 hours at 37° C. and 5% CO2 in a humidified atmosphere. After 24 hours, the cell suspension was removed from the plates and the cells were pelleted by centrifugation. The cell culture supernatant was saved and analysed for secreted IL-2 by ELISA. The cell pellet was saved and cell viability was measured using Acridine Orange/Ethidium Bromide cell viability staining solution.
The cell pellet was resuspended in 20 μl of Acridine Orange/Ethidium Bromide staining solution. A portion of this cell suspension was placed on a haemocytometer and analysed under a fluorescence microscope. […] The ratio of viable cells: non-viable cells were calculated for each activation time point/drug treatment.

[1] = tested on: IL-2 secretion from Jurkat T cells; test: IL-2 secretion from activated Jurkat T cells (ELISA); type: cell-based, human; settings: for IL-2 [ ]pg/ml (1) / IL-2 % Control (1): experiment (1); for IL-2 % Control (1) / IL-2 % Control (2) / IL-2 % Control (3): relative to DMSO 0.1%; for IL-2 [ ]pg/ml (2) / IL-2 % Control (2): experiment (2); for IL-2 [ ]pg/ml (3) / IL-2 % Control (3): experiment (3)
Description: The T cell line Jurkat 6.1 (ATCC) was used. Cells were pre-treated for 30 min with 1 μM or 10 μM of the respective compound and then stimulated with plate-bound anti-CD3 (BD Pharmingen) and anti-CD28 (AnCell). DMSO was used as vehicle control. The immunosuppressive agent Cyclosporine A was used as a control for inhibition of IL-2 production. After 24 hs the supernatant was collected and IL-2 secretion was measured by ELISA.
Jurkat T cells were cultured in RMPI-1640 medium containing 10 % Foetal Bovine Serum, Penicillin/Streptomycin and L-Glutamine in T-75cm2 flasks at 37° C. and 5 % CO2. Cells were seeded into new culture flasks at a density of 1-3×10^5 cells per ml and maintained at a density of 0.5−1×10^6 cells per ml.
as §1
(B) PHA/PMA-mediated activation of Jurkat cells Jurkat cells were resuspended at a concentration of 0.5×10^6 cells per ml and the Pharmatrin compounds at the desired concentration or an equivalent volume of drug vehicle control (DMSO) were added to the cells and incubated for 30 minutes. Cyclosporine A (1 ∝M) was used as a positive control to inhibit IL-2 production from activated T cells and was preincubated with the cells as described above in parallel. PHA and PMA were added to the cell suspension (10 ∝g/ml and 10 ng/ml respectively) and the cells were plated onto uncoated 24-well plates. The cells were incubated on the plates for 24 hours at 37° C. and 5 % CO2 in a humidified atmosphere. After 24 hours, the cell suspension was removed from the plates and the cells were pelleted by centrifugation. The cell culture supernatant was saved and analysed for secreted IL-2 by ELISA.
The cell culture supernatants were analysed for IL-2 by ELISA (96-well plate format) using the Human IL-2 ELISA kit from R&D Systems Europe. This assay was carried out using the standard protocol outlined by the company. Samples and standards (recombinant human IL-2 provided by R&D Systems) were analysed in triplicate. […]

Balb/C mice = test: 5% DSS-induced murine colitis model; type: in vivo, mouse; settings: for inhibition of DAI in DSS-induced colitis: 5% DSS colitis (FIG. 9)
CD-1 mice = test: Methylated bovine serum albumin (mBSA) delayed-type hypersensitivity mouse paw swelling; type: in vivo; settings: 10 mg/kg i.p.; mBSA challenge alone 107%
Description: CD-1 mice (25-35 gms) were anaesthetised with halothane and immunised intradermal (i.d.) with mBSA/Freunds complete adjuvant containing Mycobacterium butyricum (FCA(B)) emulsion at four sites (62.5 μg/25 μl at each site) on the shaved chest on day 1. The mBSA/FCA(B) is prepared by emulsifying equal volumes of mBSA and FCA(B) solutions (the mBSA solution was first prepared in sterile isotonic saline at a concentration of 5 mg/mL). On days 8 and 9, mice were dosed intraperitoneal (i.p.) with either 1% carboxymethylcellulose (CMC), CycA or a novel compound in 1% CMC. Two hours after the second i.p. dose (day 9), anaesthetised mice were challenged, by injecting mBSA in saline subcutaneous (s.c.) in the dorsal surface of the right hind paw and s.c. in the left hind paw with saline alone (20 μl each injection). 24 hours later, mice were sacrificed by cervical dislocation, and the swelling of each paw was measured in triplicate with a plethysmometer.
Paw swelling (% difference)={mBSA injected paw volume (mls)}−{saline injected paw volume (mls)}×100%
Saline Injected Paw Volume (mls)

## O[C@@H]1c2ccccc2C[C@]1(Cc1ccccc1)C1=Cc2ccccc2C1 (mixture of isomers) [Compound 5, (R,S and SR)2-Benzyl-2,3-dihydro-1H,1′H-2,2′-biinden-1-ol]
Jurkat cells
  cell viability: without affecting cell viability
[1]
  IL2 release from Jurkat cells: inhibited IL2 release
[1]; 0.3 uM
  IL-2 [ ]pg/ml (1): 32.00 pg/mL
  IL-2 % Control (1): 156.86%
  IL-2 [ ]pg/ml (2): 87.25 pg/mL
  IL-2 % Control (2): 133.61%
  IL-2 [ ]pg/ml (3): 164.41 pg/mL
  IL-2 % Control (3): 124.97%
[1]; 1 uM
  IL-2 [ ]pg/ml (1): 21.85 pg/mL
  IL-2 % Control (1): 107.11%
  IL-2 [ ]pg/ml (2): 64.65 pg/mL
  IL-2 % Control (2): 99.00%
  IL-2 [ ]pg/ml (3): 127.84 pg/mL
  IL-2 % Control (3): 97.18%
[1]; 3 uM
  IL-2 [ ]pg/ml (1): 10.90 pg/mL
  IL-2 % Control (1): 53.43%
  IL-2 [ ]pg/ml (2): 83.25 pg/mL
  IL-2 % Control (2): 60.20%
  IL-2 [ ]pg/ml (3): 97.38 pg/mL
  IL-2 % Control (3): 74.02%
[1]; 10 uM
  IL-2 [ ]pg/ml (1): 8.75 pg/mL
  IL-2 % Control (1): 42.89%
  IL-2 [ ]pg/ml (2): 63.80 pg/mL
  IL-2 % Control (2): 97.70%
  IL-2 [ ]pg/ml (3): 70.72 pg/mL
  IL-2 % Control (3): 53.76%
[1]; 30 uM
  IL-2 [ ]pg/ml (1): 16.25 pg/mL
  IL-2 % Control (1): 79.66%
  IL-2 [ ]pg/ml (2): 5.75 pg/mL
  IL-2 % Control (2): 8.81%
  IL-2 [ ]pg/ml (3): 6.69 pg/mL
  IL-2 % Control (3): 5.08%
[1]; 100 uM
  IL-2 [ ]pg/ml (1): -10.40 pg/mL
  IL-2 % Control (1): −50.98%
  IL-2 [ ]pg/ml (2): -13.05 pg/mL
  IL-2 % Control (2): −19.98%
  IL-2 [ ]pg/ml (3): 0.28 pg/mL
  IL-2 % Control (3): 0.21%
Balb/C mice
  inhibition of DAI in DSS-induced colitis: only 6 caused a significant
CD-1 mice
  mBSA paw swelling: 72%

## O[C@H]1c2ccccc2C[C@]1(Cc1ccccc1)C1=Cc2ccccc2C1 (mixture of isomers) [Compound 6, (S,S and RR)2-Benzyl-2,3-dihydro-1H,1′H-2,2′-biinden-1-ol]
Jurkat cells
  cell viability: without affecting cell viability
[1]
  IL2 release from Jurkat cells: inhibited IL2 release
[1]; 0.3 uM
  IL-2 [ ]pg/ml (1): 63.72 pg/mL
  IL-2 % Control (1): 87.26%
  IL-2 [ ]pg/ml (2): 74.50 pg/mL
  IL-2 % Control (2): 114.09%
  IL-2 [ ]pg/ml (3): 101.75 pg/mL
  IL-2 % Control (3): 77.34%
[1]; 1 uM
  IL-2 [ ]pg/ml (1): 58.72 pg/mL
  IL-2 % Control (1): 80.41%
  IL-2 [ ]pg/ml (2): 51.60 pg/mL
  IL-2 % Control (2): 79.02%
  IL-2 [ ]pg/ml (3): 112.44 pg/mL
  IL-2 % Control (3): 85.47%
[1]; 3 uM
  IL-2 [ ]pg/ml (1): 47.83 pg/mL
  IL-2 % Control (1): 65.50%
  IL-2 [ ]pg/ml (2): 29.15 pg/mL
  IL-2 % Control (2): 44.64%
  IL-2 [ ]pg/ml (3): 104.44 pg/mL
  IL-2 % Control (3): 79.39%
[1]; 10 uM
  IL-2 [ ]pg/ml (1): 27.72 pg/mL
  IL-2 % Control (1): 37.96%
  IL-2 [ ]pg/ml (2): 36.15 pg/mL
  IL-2 % Control (2): 55.36%
  IL-2 [ ]pg/ml (3): 75.19 pg/mL
  IL-2 % Control (3): 57.15%
[1]; 30 uM
  IL-2 [ ]pg/ml (1): 4.72 pg/mL
  IL-2 % Control (1): 6.47%
  IL-2 [ ]pg/ml (2): 47.60 pg/mL
  IL-2 % Control (2): 72.89%
  IL-2 [ ]pg/ml (3): 16.47 pg/mL
  IL-2 % Control (3): 12.52%
[1]; 100 uM
  IL-2 [ ]pg/ml (1): -10.11 pg/mL
  IL-2 % Control (1): −13.85%
  IL-2 [ ]pg/ml (2): -19.75 pg/mL
  IL-2 % Control (2): −30.25%
  IL-2 [ ]pg/ml (3): 1.97 pg/mL
  IL-2 % Control (3): 1.50%
Balb/C mice
  inhibition of DAI in DSS-induced colitis: significant (P<0.01) inhibition
Balb/C mice; 5% DSS colitis, 30 mg/kg p.o. (FIG. 8)
  effect on DSS-induced weight loss: ameliorated
CD-1 mice
  mBSA paw swelling: 71%
